According to patent US20160082036A1, “HYDROXYALKYL STARCH FOR THE TREATMENT OF CANCERS BY REDUCTION OF TUMOR GROWTH RATES” (Fresenius Kabi Deutschland GmbH, priority 2012, published 2016):

System: human breast cell carcinoma line MT-3
Experiment: Example 5: MT-3 xenograft tumor growth, three studies with different HES types
Assay type: in vivo
Procedure: In another set of three studies which were performed in analogy to the studies described above in Examples 1 and 2, more different HES types have been analysed in the same setting using the MT3 cell line mouse model.
Docetaxel (Taxotere®) was obtained from Sanofi-Aventis Deutschland GmbH, (Lot CHB D9C895; Berlin, Germany) and was stored in the dark at −20° C. until use. The injection solution was prepared immediately before use by dissolving in saline solution.
Hydroxyethyl starch compounds were obtained from Fresenius Kabi Deutschland GmbH on Dec. 7, 2012 and were stored at room temperature until use. The compounds each were dissolved in saline to obtain 10% w/v solutions. The application was 400 μl/20 g mouse body weight for saline and HES solutions, while Docetaxel was given in a volume of 10 ml/kg as slow bolus. The route of administration was intravenously for all mice.
Adult female NMRI:nu/nu mice (TACONIC Europe, Lille Skensved, Denmark) bred in the own (EPO) colony were used throughout the study. At the start of experiment they were 6-8 weeks of age.
The MT-3 cell line was used for subcutaneous (s.c.) xenotransplantation in immune deficient female NMRI:nu/nu mice. The MT-3 breast carcinoma cell line was obtained from the tumour bank of the National Cancer Institute of the former USSR, WONZ, Moscow.
The cells are cryo-preserved. Cells were thawed, expanded by in vitro culture and transplanted s.c. as cell suspension in female NMRI:nu/nu mice.
The number of 5×10^6 tumour cells was transplanted s.c into the flank of each mouse. The animals were monitored for tumour growth and when tumours were palpable, generally between day 7 and day 10 after transplantation, mice were randomised into the treatment groups with 15 mice each. Day 0 is defined as the day of first treatment.
Individual tumour diameters were measured twice weekly with a calliper-like instrument. Tumour volumes were calculated according to V=(length×(width)^2)/2. […] The relative tumour volume (RTV) and the treated to control (T/C RTV) values in percent were calculated for each measurement day in relation to V values at day 0.
In study 3 mice were sacrificed when the tumor size reached more than 1.5 cm^3, or the tumors ulcereted. Study 3 was finished when the mean TV was in most groups larger than 1.0 cm^3.
Mice were treated with i.v. injection of Docetaxel (Taxotere®) at day 0 and 14 at a dose of 40 mg/kg and with the hydroxyethyl starch compounds (20 ml/kg) once weekly.
In study 1 all mice developed tumours after s.c. transplantation of 5×10^6 MT-3 cells up to a size of 0.046±0.015 cm^3 within 7 days. Mice were treated intravenously with a dose of 40 mg/kg Docetaxel (Taxotere®) at days 0 and 14, whereas four different HES specifications in saline (containing each 10% w/v) were injected in a volume of 20 ml/kg i.v. weekly (day 0, 7, 14). Saline was injected once a week (20 ml/kg). All groups were treated during the whole experimental period accordingly to the planned schedule. The tumour of control mice in study 1 grew up to a volume of 1.1±0.6 cm^3.
In study 2 all mice developed tumours after s.c. transplantation of 5×10^6 MT-3 cells up to a size of 0.081±0.033 cm^3 within 9 days. Mice were treated intravenously with a dose of 40 mg/kg docetaxel at days 0 and 14, whereas four different HES specifications in saline (containing each 10% w/v) were injected in a volume of 20 ml/kg i.v. weekly (day 0, 7, 14). Saline was injected once per week (20 ml/kg). All groups were treated during the whole experimental period accordingly to the planned schedule. The tumour of control mice grew up until day 18 to a volume of 1.48±1.04 cm^3.
In study 3 all mice developed tumours after s.c. transplantation of 5×10^6 MT-3 cells up to a size of 0.059±0.018 cm3 within 7 days. […]

CC(=O)O[C@@]12CO[C@@H]1C[C@H](O)[C@@]1(C)C(=O)[C@H](O)C3=C(C)[C@@H](OC(=O)[C@H](O)[C@@H](NC(=O)OC(C)(C)C)c4ccccc4)C[C@@](O)([C@@H](OC(=O)c4ccccc4)[C@H]21)C3(C)C [Docetaxel]
tumour growth inhibition effect (in words) (studies 1 to 3, compared to saline control, FIGS. 7, 9, 11): strong inhibitory effect on tumour growth
RTV T/C (study 1): 14.4%
inhibition of tumour growth (study 1): more than 85%
RTV T/C (study 2): 16.9%
inhibition of tumour growth (study 2): 83%
RTV T/C (study 3, at day 7): 8.8%
inhibition of tumour growth (study 3, at day 7): 91%
